According to US20100286076A1, “ECTOPARASITICIDAL METHODS AND FORMULATIONS” (priority 2009, published 2010):

Columns and labels:
[1] = system: adult cat flea, Ctenocephalides felis; assay: Oral administration per os to dogs, experimental adult cat flea infestation, comb counts; type: in vivo
Protocol: (§1) Oral administration per os to dogs. Given the above data, investigation into oral efficacy in dogs was begun. The investigation was conducted to evaluate 1) efficacy for a point dose of 30 mg/kg, against experimental, concurrent infestations with the adult cat flea, Ctenocephalides felis; adult stage American dog ticks, Dermacentor variabilis; and adult stage kennel ticks, Rhipicephalus sanguineus; 2) plasma concentrations of the 30 mg/kg treated dogs; and 3) efficacy for point dosages of either 50 mg/kg or 100 mg/kg, against experimental infestations with adult stage kennel ticks, R. sanguineus.
(§2) Sixteen dogs were selected for two groups of eight dogs (4 male: 4 female) per group. One treatment group received spinetoram, while the other group was left untreated. The dogs were housed individually in concrete-floored chain-link kennels both inside and outside. During the study period the dogs were fed a dry dog chow, except for the day of treatment (day 0) when they received wet canned food. The dogs had ad libitum access to water.
The first group on day 0 received one or more gelatin capsules containing spinetoram powder by mouth, in the amount of 30 mg/kg, while the untreated group received placebo. For the evaluation of the higher doses (50 and 100 mg/kg) for efficacy against R. sanguineus, dogs from the 30 mg/kg group were re-dosed at the higher levels approximately 2.5 months after the low dose administration, once the flea efficacy data had been collected.
Each dog was experimentally infested with about 100 adult fleas, and 50 ticks of each species on test days—1,5,12,19, 28, 35, and 42, with additional flea infestations conducted on days 49 and 56. Knockdown assessments against both ticks and fleas were conducted 24 hours after dosing. All subsequent counts were conducted 48 hours after infestation. For the higher doses, the dogs were infested with around 50 R. sanguineus ticks one day before re-dosing and again 5 days post re-dosing, with comb counts conducted approximately 24 hours thereafter. Knockdown activity (Day 1) was determined using 24 hr post-dosing comb counts. For all post-treatment residual tick counts, the comb count occurred 48 hours post infestation. Blood samples were drawn on days 14, 21, 28, and 35 to determine concentration of spinetoram in plasma.

[2] = system: adult stage kennel ticks, Rhipicephalus sanguineus; assay: Oral administration per os to dogs, experimental kennel tick infestation; type: in vivo; conditions: at the doses tested (30, 50 or 100 mg/kg)
Protocol: as §1
as §2, with “water. […]” for “water.”
(§3) Each dog was experimentally infested with about 100 adult fleas, and 50 ticks of each species on test days—1,5,12,19, 28, 35, and 42, with additional flea infestations conducted on days 49 and 56. […] Knockdown activity (Day 1) was determined using 24 hr post-dosing comb counts. […]

House Fly = assay: Adult House Fly Assay (AhsF), feeding on compound-soaked dental wicks, 24 h mortality; design: species or system Musca domestica; conditions: adult house flies
Protocol: Adult Stable or House Fly Assay (ASF, AhsF). This assay is conducted essentially as described in White, W. H., S. M. Bauer, X. Zhao et al., Comparison of in vitro and in vivo ectoparasiticide activity of an experimental benzimidazole-carbamate with permethrin and amitraz, J. Med. Entomol. 42, 207-211 (2005); and White, W. H., C. M. McCoy, J. A. Meyer et al., Knockdown and mortality comparisons among spinosad-, imidacloprid-, and methomyl-containing baits against susceptible Musca domestica (Diptera: Muscidae) under laboratory conditions, J. Econ. Entomol. 100, 155-163 (2007).
Test material is formulated in DMSO at 10 mM. Doubling dilutions in like solvent are made to yield 10 testing levels. Materials are diluted in either bovine serum (stable flies) or 5% glucose solution (house flies) to obtain desired exposure concentrations from 200-0.39 μM. Approximately 3 ml of diluted test material is placed into a test tube (n=3 per test level) and a dental wick is used to absorb fluid. One dental wick is placed into a small weigh boat inside of a 100 mm Petri dish. Approximately 10 mixed-sex adult flies are anesthetized using carbon dioxide and counted into each dish. Dishes are incubated at 27° C. and 50-70% relative humidity. Flies recover from anesthesia and feed on compound-soaked dental wicks. After 24 h, live/dead flies are enumerated. Nonlinear regression is used to model dose-mortality relationship and obtain relative potency (LD50) data compared to contemporaneous controls (solvent-only or permethrin).

[3] = system: adult stage American dog ticks, Dermacentor variabilis; assay: Oral administration per os to dogs, experimental American dog tick infestation; type: in vivo; conditions: at the doses tested (30 mg/kg)
Protocol: as §1
as §2, with “water. […]” for “water.”
as §3

With Spinetoram as the substance, how does the “geometric mean percent flea reduction, Day 7” value ([1]; oral 30 mg/kg, Day 7) read?
The value was 100%.

What about the “geometric mean percent flea reduction, Day 14” value ([1]; oral 30 mg/kg, Day 14) of the same substance?
Its value is 100%.

What about the “geometric mean percent flea reduction, Day 21” value ([1]; oral 30 mg/kg, Day 21) of the same substance?
Its value is 99.5%.

What about the “geometric mean percent flea reduction, Day 30” value ([1]; oral 30 mg/kg, Day 30) of the same substance?
Its value is 100%.

And the “geometric mean percent flea reduction, Day 37” value ([1]; oral 30 mg/kg, Day 37)?
The value was 98.9%.

And the “geometric mean percent flea reduction, Day 44” value ([1]; oral 30 mg/kg, Day 44)?
The value was 99.7%.

What about the “geometric mean percent flea reduction, Day 51” value ([1]; oral 30 mg/kg, Day 51) of the same substance?
The value was 98.2%.

And the “geometric mean percent flea reduction, Day 58” value ([1]; oral 30 mg/kg, Day 58)?
The value was 96.9%.

What about the “geometric mean percent flea reduction, Knockdown” value ([1]; oral 30 mg/kg, Knockdown) of the same substance?
The value was 99.7%.

What about the residual control ([1]; oral point dose 30 mg/kg, extends beyond 8 weeks) of the same substance?
Its residual control is greater than 97%.

And the activity against ticks [2]?
Its activity against ticks is “did not demonstrate statistically significant activity”.

What about the EC50 (House Fly; 24 h, 5% glucose solution, read-out: Potency (24 h EC50 μM)) of the same substance?
The EC50 was 2.18 µM.

And the “Spinetoram/Spinosad Potency Ratio” value (House Fly; 24 h EC50)?
The value was 5.5.

And the activity against ticks [3]?
The activity against ticks was “did not demonstrate statistically significant activity”.
